Measured values taken from patent US20210346354A1, “MACROPINOCYTOSIS IN CANCER” (Memorial Sloan-Kettering Cancer Center, priority 2015, published 2021).

Columns and labels:
mTORC1 = mTORC1 re-activation after 1 h EAA starvation, Western blotting against phosphorylated S6K1; format: cell-based, mouse; details: wild type and K-Ras^G12D MEFs; EAA-free medium with 1-3% albumin; 500 nM torin 1 added at onset of EAA starvation
Method: Cells were rinsed with ice-cold PBS and detached from culture plates by incubation with ice-cold trypsin (0.05%). Trypsin was inactivated with ice-cold serum, cells pelleted and rinsed with ice cold PBS. Cells were lysed in ice-cold lysis buffer [50 mM HEPES, pH 7.4, 40 mM […], 2 mM EDTA, 1 mM Na Orthovandanate, 50 mM NaF, 10 mM Na Pyrophosphate, 10 mM Na Glycerophosphate, 1% Triton X-100, 1×Halt protease and phosphatase inhibitor cocktails (Thermo Scientific)] for 15 min, and soluble lysate fractions isolated by centrifugation at 16,000 g for 10 min. Protein concentrations were determined with the Pierce BCA Protein Assay (Thermo Scientific) and equal amounts of proteins analyzed by SDS gel electrophoresis and Western blotting following standard protocols.
(§1) Cell culture experiments were performed at 37° C. and 5% CO2 in DMEM/F12 with 10% dialyzed FBS (molecular weight cut-off 10,000; Gemini Biosystems), 100 U/mL penicillin, 100 μg/mL streptomycin, 5 mM glucose and 2 mM glutamine. For proliferation assays, MEFs were plated in complete medium, 5 h later briefly rinsed and then cultured in starvation medium as indicated. For EAA titration experiments, EAAs were supplemented at indicated percentages of 1×MEM amino acid solution (M5550, Sigma). Cancer cell lines were cultured in complete medium for 1 day prior to starvation. Numbers of adherent cells, which are >95% viable as assessed by Trypan Blue exclusion were determined using a Multisizer 4 Coulter Counter (Beckman). For mTOR activation and localization experiments, cells were rinsed and then incubated in EAA starvation medium (DMEM/F12 lacking all amino acids except glutamine) for 1 h, and subsequently placed in medium supplemented with EAAs (1×MEM amino acid solution), albumin (3%, if not stated otherwise) or fresh EAA-free starvation medium for indicated periods of time.
Cells can sense EAAs through the mTORC1 pathway, which integrates amino acid levels with inputs from growth factor signaling to promote cell growth (Ma and Blenis, 2009; Shimobayashi and Hall, 2014). When cells are placed in EAA-free medium, the ability of mTORC1 to phosphorylate downstream targets is repressed. To test if catabolism of extracellularly provided proteins could restore mTORC1 activity in the absence of EAAs, mTORC1 was inactivated by subjecting MEFs to 1 h EAA starvation. Fresh medium containing EAAs or different concentrations of albumin was then added and mTORC1 re-activation assessed by Western blotting against phosphorylated S6K1.

K-Ras^G12D MEFs = experiment: Lysosomal degradation of DQ-BSA (fluorescence dequenching) in K-Ras^G12D MEFs; format: cell-based, mouse
Method: (§2) For live imaging, medium was supplemented with 0.3 mg/ml DQ Green BSA. 1 h prior to imaging, 50 nM LysoTracker Red and 0.2 μg/ml Hoechst were added. Cells were imaged either immediately after addition of DQ-BSA and torin 1, or after 5-6 h incubation using a Zeiss LSM 5 LIVE.
To characterize how cells derive leucine from extracellular proteins, cellular albumin uptake was investigated using constitutively fluorescent albumin and intracellular albumin proteolysis using a self-quenched albumin that emits fluorescence upon degradation (DQ-BSA) (Reis et al., 1998). […] It was then determined whether lysosomal albumin degradation was required to support growth during leucine starvation. […] Ras GTPases can promote cellular uptake of macromolecules through macropinocytosis (Bar-Sagi and Feramisco, 1986). […] To investigate whether this endocytic pathway contributed to albumin-dependent growth, cells were treated with the Na^+/H^+ exchange inhibitor EIPA, which blocks macropinocytosis but not other endocytic pathways (West et al., 1989).
To distinguish these possibilities, it was first tested whether mTORC1 inhibition increased internalization of extracellular macromolecules. […] It was next examined whether mTORC1 inhibition affected lysosomal degradation of internalized proteins.

wild type MEFs = experiment: Lysosomal degradation of DQ-BSA in wild type MEFs; format: cell-based, mouse; details: 250 nM torin 1; 6 h DQ-BSA uptake
Method: as §2
To further investigate how Ras and mTORC1 signaling regulated lysosomal proteolysis of internalized proteins, the effects of mTORC1 inhibition and K-Ras activation were compared. […] Thus, K-Ras enhances a cell's ability to take up and degrade extracellular proteins. In contrast, whereas mTORC1 specifically restricts their lysosomal degradation.

[1] = tested on: K-Ras mutant tumor cell lines (KRPC, MiaPaCa-2, A549); experiment: Proliferation of K-Ras mutant tumor cell lines; format: cell-based; details: 250 nM torin 1
Method: Dashed lines indicate starting cell numbers. P-values were calculated using a two-tailed unpaired t-test. ***p<0.001. […] Under experimental conditions, cells have abundant glucose supplied in their medium and are thus unlikely to utilize leucine for lipid as opposed to protein synthesis during anabolic growth. Consistent with this, when cells were labeled with ^14C-leucine, the ratio of protein to lipid incorporation of label was: control cells 364±69, torin-1 treated cells 203±27, raptor-deficient cells 87±3. Data are represented as mean±STDEV (n=3).
as §1, with “For mTOR activation and localization experiments, cells were rinsed and then incubated in EAA starvation medium (DMEM/F12 lacking all amino acids except glutamine) for 1 h, and subsequently placed in medium supplemented with EAAs (1×MEM amino acid solution), albumin (3%, if not stated otherwise) or fresh EAA-free starvation medium for indicated periods of time.” left out

For CCC(=O)N1CCN(c2ccc(-n3c(=O)ccc4cnc5ccc(-c6cnc7ccccc7c6)cc5c43)cc2C(F)(F)F)CC1 [torin 1], the “albumin-induced S6K1 phosphorylation” value (mTORC1) was “completely suppressed”, the “DQ-BSA proteolysis, torin 1 combined with constitutive K-Ras activation” value (K-Ras^G12D MEFs; 250 nM torin 1, 6 h DQ-BSA uptake, versus either manipulation alone) was “almost four times more than either manipulation alone” and the “fluorescence dequenching of DQ-BSA” value (K-Ras^G12D MEFs; 250 nM torin 1, followed over time) was “dramatic increase”. For the same compound, the “rate of DQ-BSA degradation after torin 1 pre-treatment” value (K-Ras^G12D MEFs; pre-treating with 250 nM torin 1 for 6 h or 16 h) was “did not increase the rate of DQ-BSA degradation”, the DQ-BSA fluorescence (wild type MEFs) was “significant increase” and the cell proliferation ([1]; leucine-containing medium +3% albumin, day 3) was “strongly decreased their proliferation”. For the same compound, the cell proliferation ([1]; leucine-free medium +3% albumin, day 4) was “induced several carcinoma cell lines harboring activating Ras mutations to proliferate”.
